Results reported in patent EP0832891B1, “Dihydrobenzo (B) indeno (2,1-D) thiophene compounds, intermediates, processes, compositions, and methods” (ELI LILLY AND COMPANY, priority 1996, dated 1998).
Marks after values point to notes of the source that are not given here.

Columns and labels:
ovariectomized rats [1] = test system: ovariectomized rats; parameters: species or system Sprague Dawley rats; conditions: rat, in vivo, po, 0.1 mg/kg/day
Description: (§1) In the examples illustrating the methods, a postmenopausal model was used in which effects of different treatments upon circulating lipids were determined.
(§2) Seventy-five day old female Sprague Dawley rats (weight range of 200 to 225g) were obtained from Charles River Laboratories (Portage, MI). The animals were either bilaterally ovariectomized (OVX) or exposed to a Sham surgical procedure at Charles River Laboratories, and then shipped after one week. Upon arrival, they were housed in metal hanging cages in groups of 3 or 4 per cage and had ad libitum access to food (calcium content approximately 0.5%) and water for one week. Room temperature was maintained at 22.2° ± 1.7° C with a minimum relative humidity of 40%. The photoperiod in the room was 12 hours light and 12 hours dark.
Dosing Regimen Tissue Collection. After a one week acclimation period (therefore, two weeks post-OVX) daily dosing with test compound was initiated. 17α-ethynyl estradiol or the test compound were given orally, unless otherwise stated, as a suspension in 1% carboxymethylcellulose or dissolved in 20% cyclodextrin. Animals were dosed daily for 4 days. […] The animals were then sacrificed by asphyxiation with CO2, the uterus was removed through a midline incision, and a wet uterine weight was determined.

Eosinophil peroxidase = test system: Eosinophil peroxidase; parameters: species or system Sprague Dawley rats; conditions: rat, in vivo
From the text: as §2
Dosing Regimen Tissue Collection. After a one week acclimation period (therefore, two weeks post-OVX) daily dosing with test compound was initiated. […] The animals were then sacrificed by asphyxiation with CO2, the uterus was removed through a midline incision, and a wet uterine weight was determined.
Uterine Eosinophil Peroxidase (EPO) Assay. […] Upon addition of 0.01% hydrogen peroxide and 10 mM O-phenylenediamine (final concentrations) in Tris buffer, increase in absorbance was monitored for one minute at 450 nm. […] The maximal velocity of a 15 second interval was determined over the initial, linear portion of the reaction curve.

ovariectomized rats [2] = assay: Serum cholesterol analysis in ovariectomized rats; format: in vivo, Sprague Dawley rats; conditions: for Serum Cholest. % Decrease: daily for 4 days, versus ovariectomized controls
Description: as §1, §2
Dosing Regimen Tissue Collection. After a one week acclimation period (therefore, two weeks post-OVX) daily dosing with test compound was initiated. 17α-ethynyl estradiol or the test compound were given orally, unless otherwise stated, as a suspension in 1% carboxymethylcellulose or dissolved in 20% cyclodextrin. Animals were dosed daily for 4 days. Following the dosing regimen, animals were weighed and anesthetized with a ketamine: xylazine (2:1, V:V) mixture and a blood sample was collected by cardiac puncture. The animals were then sacrificed by asphyxiation with CO2, the uterus was removed through a midline incision, and a wet uterine weight was determined.
Cholesterol Analysis. Blood samples were allowed to clot at room temperature for 2 hours, and serum was obtained following centrifugation for 10 minutes at 3000 rpm. Serum cholesterol was determined using a Boehringer Mannheim Diagnostics high performance cholesterol assay. Briefly the cholesterol was oxidized to cholest-4-en-3-one and hydrogen peroxide. The hydrogen peroxide was then reacted with phenol and 4-aminophenazone in the presence of peroxidase to produce a p-quinone imine dye, which was read spectrophotemetrically at 500 nm. Cholesterol concentration was then calculated against a standard curve.

[3] = test system: MCF-7 breast adenocarcinoma cells; assay: MCF-7 Proliferation Assay (tritiated thymidine uptake); format: cell-based; conditions: Homo sapiens, MCF7; MCF-7 cells, 48 hours with drug, tritiated thymidine pulse 4 hours
Description: MCF-7 breast adenocarcinoma cells (ATCC HTB 22) were maintained in MEM (minimal essential medium, phenol red-free, Sigma, St. Louis, MO) supplimented with 10% fetal bovine serum (FBS) (V/V), L-glutamine (2 mM), sodium pyruvate (1 mM), HEPES {(N-[2-hydroxyethyl]piperazine-N'-[2-ethanesulfonic acid]10 mM}, non-essential amino acids and bovine insulin (1 µg/mL) (maintenance medium). Ten days prior to assay, MCF-7 cells were switched to maintenance medium supplemented with 10% dextran coated charcoal stripped fetal bovine serum (DCC-FBS) assay medium) in place of 10% FBS to deplete internal stores of steroids. MCF-7 cells were removed from maintenance flasks using cell dissociation medium (Ca++/Mg++ free HBSS (phenol red-free) supplemented with 10 mM HEPES and 2 mM EDTA). Cells were washed twice with assay medium and adjusted to 80,000 cells/mL. Approximately […] (8,000 cells) were added to flat-bottom microculture wells (Costar 3596) and incubated at 37° C in a 5% CO2 humidified incubator for 48 hours to allow for cell adherence and equilibration after transfer. Serial dilutions of drugs or DMSO as a diluent control were prepared in assay medium and […] to triplicate microcultures […]. […] Samples were counted by liquid scintillation using a Wallace BetaPlace β counter.

Uterine Eosinophil (Vmax) (Eosinophil peroxidase)	EC50 [3] [nM]	Structure (SMILES)	uterine weight (result in words) (ovariectomized rats [1])	eosinophil infiltration into the uterus (result in words) (Eosinophil peroxidase)	Serum Cholest. % Decrease (ovariectomized rats [2]; 0.1 mg/kg PO)	serum cholesterol (result in words) (ovariectomized rats [2]; compared to ovariectomized control animals, EE2 orally at 0.1 mg/kg/day)	Serum Cholest. % Decrease (ovariectomized rats [2]; 1 mg/kg PO)	Serum Cholest. % Decrease (ovariectomized rats [2]; 10 mg/kg PO)
357.3*	–	C#C[C@]1(O)CC[C@H]2[C@@H]3CCc4cc(O)ccc4[C@H]3CC[C@@]21C [EE2, 17α-ethynyl estradiol, reference compound]	substantially greater than the uterine weight of ovariectomized test animals	substantial, expected increase in eosinophil infiltration	95.2* %	caused a decrease in serum cholesterol	–	–
–	100	Oc1ccc2c(c1)S[C@H]1c3ccccc3[C@@H](c3ccc(OCCN4CCCCC4)cc3)[C@@H]21 [Example 3]	–	–	12.0%	–	35.7* %	65.0* %
